Data from ChEMBL document CHEMBL4476877, “Treatment of COPD, gastro-esophageal reflux disease (GERD), food allergies and other gastrointestinal conditions and disorders ameliorated by proper histamine management using a combination of histidine decarboxylase inhibitors, LRA drugs, anti-H1 and/or anti-H2 drugs” (2012).
Blank lines part the entries; values can stand above or below the compound they belong to. Active and inactive are the calls of the source. The rule behind the calls is not given here.

What was measured:
Homo sapiens [1] = assay: Improvement in disease symptoms in GERD patient assessed as improvement in disease symptoms at 200 mg dosed daily co-treated with 10 mg anti-H1 drug loratadine dosed daily relative to control; assay type: functional
Homo sapiens [2] = assay: Improvement in disease symptoms in GERD patient assessed as improvement in disease symptoms at 200 mg dosed daily co-treated with 10 mg anti-H1 drug loratadine dosed daily and 150 mg anti-H2 drug Ranitidine dosed daily; assay type: functional
Homo sapiens [3] = species: Homo sapiens; assay: Improvement in disease symptoms in patient with COPD assessed as TEV level at 200 mg/day co-treated with 10 mg/day Loratadine and measured after 6 weeks by spirometry (reference value: 0.4 L/secs); assay type: functional
Homo sapiens [4] = species: Homo sapiens; assay: Improvement in disease symptoms in patient with COPD assessed as TEV level at 200 mg/day co-treated with 10 mg/day Loratadine and measured after 6 months by spirometry (reference value: 0.4 L/secs); assay type: functional
Homo sapiens [5] = species: Homo sapiens; assay: Improvement in disease symptoms in patient with COPD assessed as TEV level at 200 mg/day co-treated with 10 mg/day Loratadine and measured after 10 months by spirometry (reference value: 0.4 L/secs); assay type: functional
Homo sapiens [6] = species: Homo sapiens; assay: Improvement in disease symptoms in patient with COPD assessed as increase in TEV level at 200 mg/day co-treated with 10 mg/day Loratadine and measured after 10 months by spirometry relative to untreated control; assay type: functional
Homo sapiens [7] = species: Homo sapiens; assay: Improvement in disease symptoms in patient with COPD assessed as TEV level at 200 mg/day co-treated with 10 mg/day Loratadine and measured after 6 weeks by spirometry (reference value: 1.4 L/secs); assay type: functional
Homo sapiens [8] = species: Homo sapiens; assay: Improvement in disease symptoms in patient with COPD assessed as TEV level at 200 mg/day co-treated with 10 mg/day Loratadine and measured after 6 months by spirometry (reference value: 1.4 L/secs); assay type: functional
Homo sapiens [9] = species: Homo sapiens; assay: Improvement in disease symptoms in patient with COPD assessed as TEV level at 200 mg/day co-treated with 10 mg/day Loratadine and measured after 8 months by spirometry (reference value: 1.4 L/secs); assay type: functional
Homo sapiens [10] = species: Homo sapiens; assay: Improvement in disease symptoms in patient with COPD assessed as increase in TEV level at 200 mg/day co-treated with 10 mg/day Loratadine and measured after 8 months by spirometry relative to untreated control; assay type: functional
Homo sapiens [11] = species: Homo sapiens; assay: Improvement in disease symptoms in patient with COPD assessed as TEV level at 200 mg/day co-treated with 10 mg/day Loratadine and measured after 6 weeks by spirometry (reference value: 1.2 L/secs); assay type: functional
Homo sapiens [12] = species: Homo sapiens; assay: Improvement in disease symptoms in patient with COPD assessed as TEV level at 200 mg/day co-treated with 10 mg/day Loratadine and measured after 6 months by spirometry (reference value: 1.2 L/secs); assay type: functional
Homo sapiens [13] = species: Homo sapiens; assay: Improvement in disease symptoms in patient with COPD assessed as TEV level at 200 mg/day co-treated with 10 mg/day Loratadine and measured after 6 weeks by spirometry (reference value: 1.8 L/secs); assay type: functional
Homo sapiens [14] = species: Homo sapiens; assay: Improvement in disease symptoms in patient with COPD assessed as TEV level at 200 mg/day co-treated with 10 mg/day Loratadine and measured after 6 months by spirometry (reference value: 1.8 L/secs); assay type: functional
Homo sapiens [15] = species: Homo sapiens; assay: Improvement in disease symptoms in patient with COPD assessed as TEV level at 200 mg/day co-treated with 10 mg/day Loratadine and measured after 12 months by spirometry (reference value: 1.8 L/secs); assay type: functional
Homo sapiens [16] = species: Homo sapiens; assay: Improvement in disease symptoms in patient with COPD assessed as TEV level at 200 mg/day co-treated with 10 mg/day Loratadine and measured after 6 weeks by spirometry (reference value: 1.5 L/secs); assay type: functional
Homo sapiens [17] = species: Homo sapiens; assay: Improvement in disease symptoms in patient with COPD assessed as TEV level at 200 mg/day co-treated with 10 mg/day Loratadine and measured after 6 months by spirometry (reference value: 1.5 L/secs); assay type: functional
Homo sapiens [18] = species: Homo sapiens; assay: Improvement in disease symptoms in patient with COPD assessed as TEV level at 200 mg/day co-treated with 10 mg/day Loratadine and measured after 12 months by spirometry (reference value: 1.5 L/secs); assay type: functional
Homo sapiens [19] = species: Homo sapiens; assay: Improvement in disease symptoms in patient with COPD assessed as TEV level at 200 mg/day co-treated with 10 mg/day Loratadine and measured after 6 weeks by spirometry relative to control; assay type: functional
[20] = target: T1, Histidine decarboxylase (Homo sapiens) (UniProt P19113); assay: Inhibition of recombinant human HDC (1 to 512 residues) expressed in Escherichia coli BL21 (DE3) pLysS assessed as reduction in [14C]CO2 production from L-[U-14C]histidine at 10 uM relative to untreated control
T1 sequence (whole entry): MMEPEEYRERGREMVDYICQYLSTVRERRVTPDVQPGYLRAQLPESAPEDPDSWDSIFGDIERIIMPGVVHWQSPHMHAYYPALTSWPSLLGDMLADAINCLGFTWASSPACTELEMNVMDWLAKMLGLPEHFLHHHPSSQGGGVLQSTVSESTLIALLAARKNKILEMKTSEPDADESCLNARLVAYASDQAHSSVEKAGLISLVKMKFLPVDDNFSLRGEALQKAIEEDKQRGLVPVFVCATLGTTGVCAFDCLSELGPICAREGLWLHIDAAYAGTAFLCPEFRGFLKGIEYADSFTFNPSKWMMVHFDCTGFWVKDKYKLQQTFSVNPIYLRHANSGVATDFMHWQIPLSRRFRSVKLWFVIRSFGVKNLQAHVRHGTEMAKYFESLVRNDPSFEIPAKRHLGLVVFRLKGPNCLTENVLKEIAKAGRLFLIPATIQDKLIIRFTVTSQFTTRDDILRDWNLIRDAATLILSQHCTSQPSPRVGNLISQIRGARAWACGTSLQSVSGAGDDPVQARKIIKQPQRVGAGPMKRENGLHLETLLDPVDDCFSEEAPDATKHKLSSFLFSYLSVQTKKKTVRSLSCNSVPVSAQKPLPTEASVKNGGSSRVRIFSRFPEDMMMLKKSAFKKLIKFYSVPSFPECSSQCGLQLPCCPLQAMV

Homo sapiens [21] = assay: Improvement in disease symptoms in GERD patient assessed as reduction in heartburns at 150 mg dosed daily; assay type: functional, organism-based
Homo sapiens [22] = assay: Improvement in disease symptoms in GERD patient assessed as reduction in regurgitation at 150 mg dosed daily; assay type: functional, organism-based
Homo sapiens [23] = assay: Improvement in disease symptoms in GERD patient assessed as reduction in cough at 150 mg dosed daily; assay type: functional, organism-based
Homo sapiens [24] = assay: Improvement in disease symptoms in GERD patient assessed as improvement in global disease scores at 150 mg dosed daily; assay type: functional, organism-based

SMILES: CCOc1c(N)c2c(c(OCC)c1OCC)C(C1c3c(cc4c(c3OC)OCO4)CCN1C)OC2=O (centres undefined) [TRITOQUALINE]
Activity (Homo sapiens [1]): 82.9%
Activity (Homo sapiens [2]): 209.5%
Activity (Homo sapiens [3]): 0.6 L/s
Activity (Homo sapiens [4]): 0.8 L/s
Activity (Homo sapiens [5]): 0.9 L/s
Activity (Homo sapiens [6]): 125%
Activity (Homo sapiens [7]): 1.7 L/s
Activity (Homo sapiens [8]): 2.1 L/s
Activity (Homo sapiens [9]): 2.4 L/s
Activity (Homo sapiens [10]): 71.4%
Activity (Homo sapiens [11]): 1.8 L/s
Activity (Homo sapiens [12]): 1.9 L/s
Activity (Homo sapiens [13]): 2.1 L/s
Activity (Homo sapiens [14]): 2.1 L/s
Activity (Homo sapiens [15]): 2.6 L/s
Activity (Homo sapiens [16]): 1.7 L/s
Activity (Homo sapiens [17]): 1.9 L/s
Activity (Homo sapiens [18]): 2 L/s
Activity (Homo sapiens [19]): 71.4%

inhibition [20]: 17.5%
SMILES: CCOc1c(N)c2c(c(OCC)c1OCC)C(C1c3c(cc4c(c3OC)OCO4)CCN1C)OC2=O (racemic)

SMILES: CNC(=C[N+](=O)[O-])NCCSCc1ccc(CN(C)C)o1
Activity (Homo sapiens [21]): inactive
Activity (Homo sapiens [22]): inactive
Activity (Homo sapiens [23]): inactive
Activity (Homo sapiens [24]): inactive
